The record followed here is patent publication US8828993B2, “Psychotropic agents having glutamate NMDA activity” (Ramot At Tel-Aviv University Ltd., priority 2006, dated 2014).

Structures are written as SMILES. “Also recorded” adds a separate entry of the source.

Type in all cases: in vivo
Assay [1] concerns MK-801-induced hyperactivity in mice. Kind of assay: MK-801-induced hyperactivity in open field. How it is done: MK-801-Induced Stereotype Behavior in Rats (in Open Field)—
MK-801 is an analogue of PCP which inhibits NMDA receptors and elicits hyperlocomotion and stereotypic behavior in rodents and is used as an animal model of schizophrenia (Stephen, et al., Topiramate antagonizes MK-801 in an animal model of schizophrenia, Eur. J. Pharmacol. 449, 2002, 121-5). For experimentation, naïve Balb/c mice were used. MK-801 (0.15 mg/kg i.p) was administered 40 minutes after Compound 1 (or any one of the other compounds of the invention) or a vehicle, and 20 minutes prior to placing the mouse in an open field.
Animals placed in the open field were followed for 60 minutes and their distance moved, velocity, duration of immobility, and number of rearing events were registered using the Noldus system.
As stated above, MK-801 inhibits NMDA receptors and elicits hyperlocomotion. Therefore, where an antagonism of the hyperactivity-induced by the MK-801 is observed upon administration of a compound of the invention, it is an indication as to the positive modulation of the NMDA activity. In other words, such a compound may be considered as useful in the treatment of schizophrenia.
The effect of Compound 6 on the distance moved in Balb/c mice exposed to MK-801 ([…]) i.p. and to Compound 6 (up to 12.5 mg/kg, i.p.) administered 1 hr prior to MK-801 was also tested.
As stated above, MK-801 (an NMDA receptor antagonist) is a widely accepted animal model for schizophrenia. The experiment was conducted with Balb/c male mice (Harlan Il), 6 per group. Compound 1 (50 mg/kg) was administered i.p. (1 hr before experimentation), to mice alone or combined with MK-801 (0.15 mg/kg, i.p.) administered 20 minutes prior to placing the mice individually in an open field for 60 minutes. The hyper-active behavior expressed by hyperlocomotion, velocity, strong mobility, number of rearing was evaluated using the Noldus system, each point represents the mean+/−6 determinations.

Assay [2] has as its system amphetamine-induced hyperactivity in mice. Nature of the assay: Amphetamine-induced hyperactivity and stereotypic behavior. The source says: The amphetamine-induced hyperactivity and motility is one of the most popular animal models for schizophrenia (Pouzet B, et al., Effects of the 5-HT(7) receptor antagonist SB-258741 in animal models for schizophrenia. Pharmacol Biochem Behav April; 71(4):655-665, 2002 and Geyer, et al., Animal behavior models of the mechanisms underlying antipsychotic atypicalicity, Progress in Neuro-Psychopharmacol & Biological Psychiatry, 27, 1071-79, 2003). Amphetamines are known to augment dopaminergic and noradrenergic neurotransmission by inducing catecholamine release and preventing catecholamine reuptake
The experiment was conducted with ICR male mice placed in individual barrels. […] The locomotor activity, number of rearings and head movements was recorded every 15 minutes for 2 h.
As stated above, the amphetamine-induced hyperactivity and motility is one of the most popular animal models for schizophrenia. The experiment was conducted with ICR male mice placed in individual barrels. Compound 1 (20 mg/kg) was administered p.o to the mice 1 hr prior to i.p. administration of amphetamine (2. mg/kg). The hyper-active behavior expressed by the number of climbings and rearings and the stereotypic behavior expressed by the number of head movements was recorded every 15 minutes over a period of 1 h.
The effect of Compound 3 (12.5, 25 and 50 mg/kg, i.p.) on amphetamine-induced hyperactivity in Balb/c mice was also examined. Animals (6 per group) were injected with Compound 3 (12.5, 25 and 50 mg/kg) and 30 minutes later received amphetamine (2 mg/kg ip). After 30 minutes, animals were exposed to an open field test for a period of 20 minutes.

Assay [3] deals with mice. Kind of assay: Open field exploratory locomotor activity. The text has this:
Open Field Exploratory Locomotor Activity
The procedure consists of subjecting an animal, usually a rodent, to an unknown large environment from which escape is prevented by surrounding walls. The open field test is now one of the most popular procedures in animal psychology (Crawley, et al., Exploratory behavior models of anxiety in mice, Neurosci Biobehav Rev 9 (1985), pp. 37-44). The procedure involves forced confrontation of a rodent with the situation. The animal is placed in the center or close to the walls of the apparatus and the following behavioral items are recorded for a period ranging from 5 to 20 minutes: horizontal locomotion, and frequency of rearing or leaning. In such a situation, rodents spontaneously prefer the periphery of the apparatus to activity in the central parts of the open field. Increase in time spent in the central part as well as of the ratio central/total locomotion or decrease of the latency to enter the central part are indications of anxiolysis.
In a typical test, an individual mouse was placed in a novel environment of a square open field (50×50 cm), the floor of which had been divided into 3 areas, as shown below. The area within 10 cm of the chamber walls was termed the periphery. […] One hour after drug administration, the animal was placed in the same corner of the field. The animal behavior in the open field was recorded by videotaping for 20-60 minutes and analyzed subsequently digitally using the Noldus software for animal behavior. The measurements included velocity, distance moved, frequency of visits to the central area, number of rearing events.
The effect of Compound 1 on the behavior of mice in the open field and the dose-dependent effect following i.p administration were evaluated. Naïve male Mice (Balb/c, Harlan Israel) were used. The animals, divided 3 to 5 animals per group, were administered with Compound 1 (12.5, 25, 50, 75 and 100 mg/kg) 1 hr prior to placing each in an open field. Mice were monitored for 1 hr (every 5 minutes) using the Noldus system, and their distance moved, velocity, time of immobility and number of rearings was recorded.
The effect of Compound 6 on the behavior of mice in the open field was also examined. Naïve male mice (Balb/c, Harlan Israel) were used. Animals (6 per group) were administered with Compound 6 (12.5, 25 and 50 mg/kg, i.p.) 1 hr prior to placing each in the open field. Mice were followed for 1 hr (every 5 minutes) using the Noldus system, and their distance moved, velocity, time of immobility and number of rearings was recorded.
The effect of oral administration of Compound 1 in the open field was tested by orally administering to male ICR mice varying amounts of Compound 1 (5, 10 and 20 mg/kg) or vehicle. Animals were placed in the open field 1 hr after drug administration and horizontal and vertical behavior was recorded for 20 minutes.
The dose-dependent effect of Compound 3 administered i.p. in the open field was also tested. Naïve male mice (Balb/c, Harlan Israel) were used. Animals were administered with Compound 3 (12.5, 25 and 50 mg/kg, i.p., 6 per group) 1 hr prior to placing each in the open field. Mice were followed for 1 hr (every 5 minutes) using the Noldus system, and their distance moved, velocity, time of immobility and number of rearings was recorded.
Animals were administered orally with Compound 1 (5, 10 and 20 mg/kg) or with a vehicle. Animals were placed in the open field 1 hr after drug administration and animal track was registered for 20 minutes. The time spent in the center (zone 3) and the frequency to the center were indicators of anxiety.

For assay [4], the system named is mice. Kind of assay: Elevated plus maze. Particulars: male Balb/c mice, oral, diazepam 1 mg/kg. The text has this:
The elevated plus maze is a widely used method to test anxiety in rodents (Pellow, et al., Pharmacol. Biochem. Behav., 24, 525-529 (1986)). The apparatus was made of wood and painted black, with two opposing open arms and two opposite enclosed arms of the same size. The arms were attached to a central square shaped in a plus sign. The whole apparatus was placed 50 cm above the floor. Anxious animals refrain from entering the open arm and prefer the closed arm.
In a typical experiment, Balb/c male mice were administered orally with 10 and 20 mg/kg of Compound 1 or Compound 6 and with a vehicle or with diazepam (1 mg/kg) administered per os (p.o.) 90 minutes before they were placed in the center of the maze. The frequency to the open aims, the time spent in the different arms, the velocity and number of rearings of the animals in each zone were recorded (Noldus).
Male Balb/c mice were used. Animals were transferred to the behavior room 24 hr before the experiment. Compound 1 or diazepam were administered orally 90 minutes before testing. Each treatment group included 5 animals.
Male Balb/c mice were used. Animals were transferred to the behavior room 24 hr before the experiment. Compound 6 (3, 9, or 27 mg/kg) or vehicle were administered orally 90 minutes before testing. Each treatment group included 5 animals.

The test system of assay [5] is mice. Nature of the assay: Forced swim test (FST). As to conditions: male ICR mice, 20 mg/kg oral. The source says: This is one of the most widely used tools for screening antidepressant activity pre-clinically in acute treatment. The test was first described by Porsolt et al., (Behavioral despair in mice: a primary screening test for antidepressants. Arch. Int. Pharmacodyn. Ther. 229, pp. 327-336, 1977). The FST test is based on the observation that rats and mice develop an immobile posture when placed in an inescapable cylinder of water. This behavior is considered a behavioral despair as opposed to active form of coping with stressful conditions. The FST test is considered a good screening tool with good reliability and predictive validity.
Three parameters were defined in the evaluation of FST:
1. Immobility—defined in the traditional Porsolt test as when no additional activity is observed other than that required to keep the animal's head above water;
2. Swimming behavior—being the movement (usually horizontal) throughout the chamber that also includes crossing into another quadrant;
3. Climbing behavior—being defined as the upward-directed movements (vertical) of the forepaws along the side of the swim chamber.
The test in mice was conducted acutely (60-90 minutes post oral drug administration) and animals were dropped to the cylinder for 6 minutes and scoring was performed in the last 4 minutes after 2 minutes of adaptation.
Round glass cylinders, 18 cm in diameter and 20 cm deep were used. Water temperature was 24-28° C. Four parameters were taken: immobility, velocity, distance and strong mobility. The immobility in the animals was defined by activity lower than 10% movement of the center of gravity of the animal. Swimming was defined by the distance and the velocity of the animal, and climbing was related to strong mobility (movement of center of gravidance more than 30%).
Males Balb/c mice (Harlan Israel) were used. Animals were administered orally with Compound 1 (10 or 20 mg/kg) or with a vehicle.
Males ICR mice were used.

[6] abbreviates: Balb/c mice, 12.5, 25 and 50 mg/kg i.p.

With `COC(=O)C(N)COCN1CCN(C2=Nc3ccccc3Nc3sc(C)cc32)CC1` (stereo not shown) [Compound 3], the MK-801-induced hyperactivity result is on record as “slight effect” in assay [1] (Balb/c mice, 7.5 mg/kg); “normalization of activity” in assay [1] (Balb/c mice, 25 mg/kg); “sedation” in assay [1] (Balb/c mice, 50 mg/kg). Moreover, the “MK-801-induced hyperactivity (distance moved)” value in assay [1] (Balb/c mice, 12.5, 25 and 50 mg/kg i.p., MK-801 0.15 mg/kg i.p.) is reported as “dose dependent decrease”. In addition, the “immobility (“not moving” total duration), MK-801 treated” value in assay [1] (Balb/c mice, high dose) is on record as “appeared”; in assay [1] (Balb/c mice, small and intermediate doses (25 mg/kg)), “not found”. The “frequency to the center of the field, MK-801 treated” value in assay [1] (Balb/c mice, low dose) was “tended to increase”. Moreover, the “time spent in the center, MK-801 treated” value in assay [1] (Balb/c mice, low dose) is “tended to increase”. For the same molecule, the “distance moved, combined with amphetamine” value is “normalization” in assay [2] (Balb/c mice, 12.5 mg/kg i.p.); “dose-dependent decrease” in assay [2] (Balb/c mice, 12.5, 25 and 50 mg/kg i.p. at -60 minutes); “marked decrease” in assay [2] (Balb/c mice, doses higher than 12.5 mg/kg i.p.). The “immobility, combined with amphetamine” value in assay [2] (Balb/c mice, 12.5, 25 and 50 mg/kg i.p., amphetamine 2 mg/kg ip) is listed as “dose-dependently increased”. The “effect of amphetamine (hypermotility)” value in assay [2] (Balb/c mice, 12.5, 25 and 50 mg/kg i.p., amphetamine 2 mg/kg ip 30 minutes later, open field 20 minutes) is on record as “dose-dependently antagonized”. In assay [2] (Balb/c mice, already at 12.5 mg/kg i.p., 12.5 mg/kg), the “hyperactivity ensued by amphetamine” value is “effective; also recorded: antagonized”. Besides, the motility parameters entry in the assay on mice [3] (Balb/c mice, 50 mg/kg i.p.) was “marked decrease”. Further, the “duration of “not moving” periods” value in the assay on mice [3] (setting [6]) was “dose dependently increased”. The “number of rearings vs. controls” value in the assay on mice [3] (setting [6]) is reported as “decreased”. The “motility (distance moved and velocity)” value in the assay on mice [3] (Balb/c mice, up to 25 mg/kg i.p.) is on record as “mild decrease”.
For `CN1C(=O)CN=C(c2ccccc2)c2cc(Cl)ccc21` [diazepam, reference compound], in the assay on mice [4], the “number of rearings in the center” value is “significantly increased”, the “number of rearings in the open arm” value is listed as “increased number of rearings” and the velocity result was “higher”.
On to `Cc1cc2c(s1)Nc1ccccc1N=C2N1CCN(C)CC1` [olanzapine, reference compound], for which, in the assay on mice [5], the distance moved result is recorded as “significantly decreased”, the immobility entry is on record as “increased”, the “strong mobility (climbing)” value is listed as “significantly decreased” and the velocity entry is reported as “significantly decreased”.
